{"source": "patent US20210161999A1", "about": "“COMPOSITIONS AND METHODS RELATED TO OVERCOMING INNATE IMMUNE BARRIERS TO CANCER IMMUNOTHERAPY” (Health Research, Inc., priority 2018, published 2021)", "molecules": {"B1": {"name": "DNase I: enzyme added to the cocultures to degrade NETs (protein, UniProt P24855 23-282, looked up)", "Deoxyribonuclease-1": "LKIAAFNIQTFGETKMSNATLVSYIVQILSRYDIALVQEVRDSHLTAVGKLLDNLNQDAPDTYHYVVSEPLGRNSYKERYLFVYRPDQVSAVDSYYYDDGCEPCGNDTFNREPAIVRFFSRFTEVREFAIVPLHAAPGDAVAEIDALYDVYLDVQEKWGLEDVMLMGDFNAGCSYVRPSQWSSIRLWTSPTFQWLIPDSADTTATPTHCAYDRIVVAGMLLRGAVVPDSALPFNFQAAYGLSDQLAQAISDHYPVEVMLK"}, "B2": {"name": "OmCI: peptide C5 inhibitor derived from the saliva of Ornithodoros moubata (protein, UniProt Q5YD59 19-168, looked up)", "Complement inhibitor": "DSESDCTGSEPVDAFQAFSEGKEAYVLVRSTDPKARDCLKGEPAGEKQDNTLPVMMTFKNGTDWASTDWTFTLDGAKVTATLGNLTQNREVVYDSQSHHCHVDKVEKEVPDYEMWMLDAGGLEVEVECCRQKLEELASGRNQMYPHLKDC"}}, "system": "PMN suppressor phenotype (suppression of anti-CD3/CD28-stimulated T cell proliferation)", "test": "Coculture of PMN with ascites supernatants and anti-CD3/CD28-stimulated T cells; T cell proliferation by [3H] thymidine incorporation", "type": "cell-based, human", "details": "for effect on ascites-induced PMN-mediated suppression: L-arginine 50 μM-1 mM, NAC 10-25 mM, DNase I 50-100 IU (n=3)", "description": "Freshly isolated T cells (1e5) were stimulated with anti-CD3/CD28 Dynabeads (2.5 μl; Thermo Fisher Scientific) and cocultured with autologous PMN (1:1) and ascites supernatants (50% final well volume) in an incubator at 37° C., 5% CO2. After 72 h, [^3H] thymidine (1 μCi per well) was added and allowed to incorporate for 16-18 h. Cells were harvested onto a Filtermat and counted on a Beta counter. Results are expressed as net cpm [calculated by subtracting the average cpm of unstimulated T cells from the average cpm of stimulated T cells].\nWhere indicated, T cells, PMN, and ascites supernatants underwent various pretreatments. Where indicated, T cells were pretreated for lh with neutralizing antibody against ICAM-I (1-10 μg), IgG1 isotype (1-10 μg), or media (RPMI 1640, 5-10% heat-inactivated FBS, HEPES, sodium pyruvate, non-essential amino acids, and penicillin-streptomycin).\nWhere indicated, PMN were pretreated for lh with neutralizing antibody against CD11b (1-10 μg), TGF-beta receptor 1 (1-10 μg) or IgG1 isotype (1-10 μg); thapsigargin (THG, 0.5-2 μM), diphenyleneiodonium (DPI, 1-25 μM), N-Formylmethionine-leucyl-phenylalanine (fMLF, 1-100 nM), brefeldin-A (1-10 μg/mL), ER export inhibitor 1 (Exol, 20-75 μM), CI-amidine (10-20 μM), SNARE decoys: TAT-SNAP23 (0.6-0.9 μg/mL), TAT-SYN4 (0.6-0.9 μg/mL), TAT-GST (0.6-0.9 μg/mL) (produced as described in the laboratory of Dr. Kenneth McLeish), puromycin and actinomycin-D (1-5 μg/mL), or with media.\nWhere indicated, ascites supernatants were pretreated with heat (56° C., lh) to denature heat-labile constituents or proteinase-K (100 μM, 37° C., 12 h) to degrade proteins. Two formulations of compstatin, a peptide C3 inhibitor, were used: CS (250 μM, 30° C., 2 h, Tocris) and Cp40 (1.25-20 μM, 30° C., 2 h), as well as a scramble peptide. In separate studies, ascites supernatants were ultra-centrifuged (100,000g, 4° C., 1.5 h) to separate the membrane-rich (MR-ASC) and membrane-depleted (MD-ASC) fractions. In others, ascites supernatants were pretreated for lh with neutralizing antibody against C5 (0.5-1.0 μg, A217; Quidel, San Diego, Calif.) or C7 (0.5-1.0 μg, A221; Quidel) or IgG1 isotype (0.5-1.0 μg), or with OmCI (0.6-1.2 μM), a peptide C5 inhibitor derived from the saliva of Ornithodoros moubata (35, 36).", "key": {"[1]": {"details": "PMN pretreated, brefeldin-A 1-10 μg/mL, Exo1 20-75 μM (n=3)"}, "[2]": {"details": "PMN pretreated for 1 h prior to coculture, puromycin 1 μg, D-actinomycin 1 μg (n=8)"}, "[3]": {"details": "PMN pretreated, fMLF 100 nM, THG 1 μM, DPI 1 μM (n=7)"}, "[4]": {"details": "added to cocultures, indomethacin 10 μM, zileuton 50 μM, 1-MT 100 μM"}}, "note": "“Also recorded” adds a separate entry of the source. *1 amine or outer side, *2 acyl side, *3 side chain or, on linkers, in order; H or OH if unused. Where a SMILES comes first, the peptide text is derived from it. Bridges are numbered along the chain shown (N, C = ends). Roman numbers before positions name the chains, in order. [ ]: non-standard residue; d: D form. Actinocin(9to1) = Cc1c2oc3c(C)ccc(C(=O)[*:1])c3nc-2c(C(=O)[*:2])c(N)c1=O; NMeV = CN[C@H](C(=O)O)C(C)C; Sar = CNCC(=O)O"}
{"molecule": "COC(=O)c1ccccc1NC(=O)c1ccc(F)cc1", "note": "[ER export inhibitor 1]", "values": [{"measurement": "effect on PMN suppressor phenotype", "setting": "[1]", "result": "abrogated the suppressor phenotype"}, {"measurement": "effect on PMN suppressor phenotype", "setting": "PMN pretreated, brefeldin-A 1-10 μg/mL, Exo1 20-75 μM (n=3), listed as Exo1", "result": "abrogated the PMN suppressor phenotype"}]}
{"molecule": "COc1ccc(C[C@H](N)C(=O)N[C@H]2[C@@H](O)[C@H](n3cnc4c(N(C)C)ncnc43)O[C@@H]2CO)cc1", "note": "[puromycin]", "values": [{"measurement": "effect on PMN suppressor phenotype", "setting": "[2]", "result": "abrogated the PMN suppressor phenotype; also recorded: variable abrogation of the suppressor phenotype"}]}
{"molecule": "CC[C@H](C)[C@H](N)C(=O)N[C@H]1CSSC[C@@H](C(=O)N[C@H](C(N)=O)[C@@H](C)O)NC(=O)[C@H](CCCN=C(N)N)NC(=O)[C@H](Cc2cnc[nH]2)NC(=O)[C@H](Cc2cnc[nH]2)NC(=O)CNC(=O)[C@H](Cc2c[nH]c3ccccc23)NC(=O)[C@H](CC(=O)O)NC(=O)[C@H](CCC(N)=O)NC(=O)[C@H](C(C)C)NC(=O)[C@H](C(C)C)NC1=O", "note": "[CS, compstatin]", "values": [{"measurement": "effect on PMN suppressor phenotype", "setting": "added to ASC 2 h prior to coculture with PMN and T cells, CS 250 μM, Cp40 20 μM, scramble peptide 20 μM", "result": "abrogated the PMN suppressor phenotype"}, {"measurement": "effect on PMN suppressor phenotype", "setting": "added to ASC 2 h prior to coculture with PMN and T cells, CS 250 μM, Cp40 20 μM, scramble peptide 20 μM, listed as compstatin", "result": "completely abrogated the PMN suppressor phenotype"}]}
{"molecule": "N=C(N)NCCC[C@H](N)C(=O)O", "note": "[L-arginine]", "values": [{"measurement": "effect on ascites-induced PMN-mediated suppression", "setting": "added to cocultures", "result": "did not reverse ascites-induced PMN-mediated suppression; also recorded: had no effect on T cell suppression"}]}
{"molecule": "c1ccc2c(c1)[I+]c1ccccc1-2", "note": "[diphenyleneiodonium]", "values": [{"measurement": "effect on PMN suppressor phenotype", "setting": "[3]", "result": "abrogated the PMN suppressor phenotype"}, {"measurement": "effect on PMN suppressor phenotype", "setting": "PMN pretreated, fMLF 100 nM, THG 1 μM, DPI 1 μM (n=7), listed as DPI", "result": "did abrogate the PMN suppressor phenotype"}]}
{"molecule": "C[C@H]1CCC/C=C/[C@@H]2C[C@H](O)C[C@H]2[C@H](O)/C=C/C(=O)O1", "note": "[brefeldin-A]", "values": [{"measurement": "effect on PMN suppressor phenotype", "setting": "[1]", "result": "abrogated the PMN suppressor phenotype"}]}
{"molecule": "N-Formylmethionine-leucyl-phenylalanine [fMLF]", "values": [{"measurement": "effect on PMN suppressor phenotype", "setting": "[3]", "result": "abrogated the PMN suppressor phenotype; also recorded: prevented induction of the PMN suppressor phenotype"}]}
{"molecule": "CC(=O)N[C@@H](CS)C(=O)O", "note": "[N-acetylcysteine]", "values": [{"measurement": "effect on ascites-induced PMN-mediated suppression", "setting": "added to cocultures", "result": "did not reverse ascites-induced PMN-mediated suppression"}, {"measurement": "effect on ascites-induced PMN-mediated suppression", "setting": "added to cocultures, listed as NAC", "result": "did not reverse suppression"}]}
{"molecule": "COc1ccc2c(c1)c(CC(=O)O)c(C)n2C(=O)c1ccc(Cl)cc1", "note": "[indomethacin]", "values": [{"measurement": "effect on PMN suppressor phenotype", "setting": "[4]", "result": "had no effect on the PMN suppressor phenotype"}, {"measurement": "effect on PMN suppressor phenotype", "setting": "added to cocultures, indomethacin 10 μM, zileuton 50 μM, 1-MT 100 μM, listed as Indomethacin", "result": "did not reverse the phenotype"}]}
{"molecule": "Cn1cc(CC(N)C(=O)O)c2ccccc21", "note": "(racemic) [1-methyl-DL-tryptophan]", "values": [{"measurement": "effect on PMN suppressor phenotype", "setting": "[4]", "result": "did not reverse the phenotype; also recorded: had no effect on the PMN suppressor phenotype"}]}
{"molecule": "CC(c1cc2ccccc2s1)N(O)C(N)=O", "note": "(stereo not shown) [zileuton]", "values": [{"measurement": "effect on PMN suppressor phenotype", "setting": "[4]", "result": "did not reverse the phenotype; also recorded: had no effect on the PMN suppressor phenotype"}]}
{"molecule": "NC(=O)[C@H](CCCN=C(N)CCl)NC(=O)c1ccccc1", "note": "[CI-amidine]", "values": [{"measurement": "effect on PMN suppressor phenotype", "setting": "PMN pretreated with CI-amidine (10-20 μM) for 1 h prior to coculture (n=3)", "result": "did not abrogate the PMN suppressor phenotype; also recorded: had no effect on the PMN suppressor phenotype"}]}
{"molecule": "Cc1c2oc3c(C)ccc(C(=O)N[C@@H]4C(=O)N[C@H](C(C)C)C(=O)N5CCC[C@H]5C(=O)N(C)CC(=O)N(C)[C@@H](C(C)C)C(=O)O[C@@H]4C)c3nc-2c(C(=O)N[C@@H]2C(=O)N[C@H](C(C)C)C(=O)N3CCC[C@H]3C(=O)N(C)CC(=O)N(C)[C@@H](C(C)C)C(=O)O[C@@H]2C)c(N)c1=O", "note": "[actinomycin D] (I: T[dV]P[Sar][NMeV] / II: T[dV]P[Sar][NMeV]; ester I:1-I:C, II:1-II:C; linker I:N-II:N via Actinocin(9to1))", "values": [{"measurement": "effect on PMN suppressor phenotype", "setting": "[2]", "result": "variable abrogation of the suppressor phenotype"}, {"measurement": "effect on PMN suppressor phenotype", "setting": "PMN pretreated for 1 h prior to coculture, puromycin 1 μg, D-actinomycin 1 μg (n=8), listed as D-actinomycin", "result": "had more variable effects"}]}
{"molecule": "C/C=C(/C)C(=O)O[C@H]1C(C)=C2[C@H]([C@@H]1OC(=O)CCCCCCC)[C@@](C)(OC(C)=O)C[C@H](OC(=O)CCC)[C@@]1(O)[C@H]2OC(=O)[C@@]1(C)O", "note": "[thapsigargin]", "values": [{"measurement": "effect on PMN suppressor phenotype", "setting": "[3]", "result": "abrogated the PMN suppressor phenotype"}]}
{"molecule": "B1", "values": [{"measurement": "effect on ascites-induced PMN-mediated suppression", "setting": "added to cocultures", "result": "did not reverse ascites-induced PMN-mediated suppression; also recorded: had no effect on the PMN suppressor phenotype"}]}
{"molecule": "B2", "values": [{"measurement": "effect on PMN suppressor phenotype", "setting": "ASC pretreated 1 h with neutralizing Ab against C5 or C7 (0.5-1.0 μg) or OmCI (0.6-1.2 μM) prior to coculture", "result": "partially abrogated the PMN suppressor phenotype; also recorded: had a partial abrogating effect on T cell suppression"}]}
